Assay results from PubChem BioAssay AID463204 (Broad Institute, 2010).
Active and inactive are the calls of the source.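 How the source made its calls: active means AC50 no more than ten times the top concentration tested, that is within one log above it; inconclusive means flat curve fit with activity between 30% and 70%, or invalid poor fit; inactive means AC50 beyond ten times the top tested dose.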

These compounds were tested on S. cerevisiae Mot1-301 ts growth rescue, BacTiter-Glo ATP luminescence (assay: restored Mot1-301 yeast growth at 38.5C – whole organism, S. cerevisiae, Mot1-301 ts mutant, luminescence, dose retest, SUMOylation pathway inhibitor project, confirmation (AID 463204);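 further: growth at restrictive 38.5 degrees C of Mot1-301 OY566 strain; actives raise luminescence by restoring growth of the ts mutant at high temperature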).

SMILES | AC50
CC1=CC(=O)C=CC1(C)C(Cl)(Cl)Cl (configuration not stated) | > 42 µM (inactive)
CCc1nccn1S(=O)(=O)c1cc(OC)ccc1OC | > 42 µM (inactive)
CSc1cc(C)c(OCC(=O)Nc2c(C)nn(C)c2C)c(C)c1 | > 42 µM (inactive)
Cc1ccc(C(=O)NCCCNC(=O)c2ccc(C)nc2)cc1 | > 42 µM (inactive)
O=C(COC(=O)Cc1ccsc1)NC1CCCCCC1 | > 42 µM (inactive)
CCOC(=O)C1CCN(CC(O)COc2ccc(C(C)(C)C)cc2)CC1 (configuration not stated) | > 42 µM (inactive)
CCCC1Cc2c(sc3ncnc(N)c23)CO1 (configuration not stated) | > 42 µM (inactive)
COC(=O)C1CCN(S(=O)(=O)Cc2ccccc2)CC1 | > 42 µM (inactive)
CC(C)c1nc2n[nH]c(N)c2c2c1CCC2 | > 42 µM (inactive)
N#Cc1c(Cn2cncn2)nc(=O)n(-c2ccc(Cl)cc2)c1N | > 42 µM (inactive)
Cc1cc(C)c(S(=O)(=O)NCC(c2cccnc2)N2CCN(Cc3ccccc3)CC2)c(C)c1 (configuration not stated) | > 42 µM (inactive)
O=[N+]([O-])c1nn(-c2ccc(Cl)cc2)n(O)c1=NCc1ccccc1Cl | 24 µM
CCOC(=O)CCN(c1ccccc1)S(=O)(=O)c1ccc(-c2ccc(=O)[nH]n2)s1 | > 42 µM (inactive)
Cc1ccc(-c2nn(-c3ccccc3)cc2C(=O)N2CCN(c3ccccn3)CC2)cc1 | > 42 µM (inactive)
O=C(Nc1nccs1)c1ccc(S(=O)(=O)c2ccccc2)cc1 | > 42 µM (inactive)
OC(c1ccccc1)(C1CCCCC1)C(CN1CCOCC1)c1ccccc1 (configuration not stated) | 13.9 µM
Cc1ccc(S(=O)(=O)NCc2ccc(C(=O)N3CCN(c4ccccn4)CC3)cc2)cc1 | > 42 µM (inactive)
COCCCNCC(O)COc1cccc2[nH]c(C)cc12 (configuration not stated) | > 42 µM (inactive)
CN(C(=O)COc1cc(=O)n(C)c2ccccc12)c1ccc(Cl)cc1 | > 42 µM (inactive)
COc1ccc(NC(=O)c2ccc(S(=O)(=O)N(C)c3ccccc3)cc2)cn1 | > 42 µM (inactive)
O=C(Oc1ccccc1N1C(=O)C2CC=CCC2C1=O)c1ccc(Br)cc1 (configuration not stated) | > 42 µM (inactive)
CC(C)CC(c1nnnn1C1CCCCC1)N1CCN(C(=O)c2ccco2)CC1 (configuration not stated) | > 42 µM (inactive)
Cc1cccn2c(=O)c3cc(C(=O)NCc4cccnc4)c(=N)n(C(C)C)c3nc12 | > 42 µM (inactive)
O=C(OCCCCOC(=O)c1ccccc1)c1ccccc1 | > 42 µM (inactive)
COc1ccc(NC(=O)CN(C)C(=O)c2cc(C)on2)cc1 | > 42 µM (inactive)
CCCCn1c(/N=C/c2ccc3c(c2)OCO3)nc2ccccc21 | > 42 µM (inactive)

SMILES | AC50
COc1ccc(C(C)=O)cc1CN(c1ccccc1OC)S(=O)(=O)c1cccs1 | > 42 µM (inactive)
O=C(c1cn(-c2ccccc2)nc1-c1cccs1)N1CCOCC1 | > 42 µM (inactive)
O=C(c1cc2c(ccc3ccccc32)oc1=O)N1CCCC1 | > 42 µM (inactive)
COC(=O)c1c(C)n(Cc2ccc3c(c2)OCO3)c2ccc(O)cc12 | > 42 µM (inactive)
CCOc1ccc2nc(CN3CCN(Cc4ccccc4OCC)C(CCO)C3)ccc2c1 (configuration not stated) | > 42 µM (inactive)
O=C(COc1ncnc2c(Cl)cc(Cl)cc12)NCCC1=CCCCC1 | > 42 µM (inactive)
CC(NC(=O)c1ccc(Cl)cc1)C(=O)N1CCCCC1 (configuration not stated) | > 42 µM (inactive)
COCCCNC(=O)c1cc(C(=O)c2c(-c3c(Cl)cccc3Cl)noc2C)c[nH]1 | > 42 µM (inactive)
Cc1ccc(C(=O)N/C(=C\c2cccs2)C(=O)NCc2ccncc2)cc1 | > 42 µM (inactive)
Cc1nc(N/N=C\c2ccc3c(c2)OCO3)sc1C | 33.5 µM
Cc1ccccc1-n1c(-c2cccnc2)n[nH]c1=S | > 42 µM (inactive)
S=c1[nH]nc(-c2ccco2)n1-c1ccc(Br)cc1 | > 42 µM (inactive)
Cc1ccccc1-c1nnc(SCc2ccc(F)cc2)o1 | > 42 µM (inactive)
Clc1ccc(CSc2nnc(CN3CCOCC3)n2-c2ccccc2)cc1Cl | > 42 µM (inactive)
CCC12CN3CCN(CC(C3)/C1=N/NC(=O)c1ccncc1)C2 | > 42 µM (inactive)
Cc1ccc(C(=O)O)cc1N=Cc1cc(Br)cc(Br)c1O | 2.45 µM
COc1cc2c(=O)n(-c3ccc(C)cc3)c(=O)n(CC(=O)c3ccc4c(c3)OCO4)c2cc1OC | > 42 µM (inactive)
O=C1c2nccnc2C(=O)N1c1ccc(C(F)(F)F)cc1 | > 42 µM (inactive)
Cc1nn(C)cc1CNC(=O)C1CCC(=O)N(Cc2cccc(C(F)(F)F)c2)C1 (configuration not stated) | > 42 µM (inactive)
Cc1ccccc1P(=O)(CO)c1ccccc1C | > 42 µM (inactive)
CCCc1ccccc1OCCNC(C)=O | > 42 µM (inactive)
CCCCOc1ccc(C(O)C(CN2CCOCC2)c2ccccc2)cc1 (configuration not stated) | > 42 µM (inactive)
CCOCCCNC(=O)C(c1ccc(OC)cc1)N(Cc1ccc2c(c1)OCO2)C(=O)CNC(C)=O (configuration not stated) | > 42 µM (inactive)
Cc1cc(C)c(NC(=O)CCN2CCN(Cc3ccccc3)CC2)c(C)c1 | > 42 µM (inactive)
CCCc1ccc(S(=O)(=O)NCCc2ccncc2)cc1 | > 42 µM (inactive)
Cc1cc(C)cc(N(CC(=O)Nc2cccc(C)n2)S(=O)(=O)c2c(C)noc2C)c1 | > 42 µM (inactive)

SMILES | AC50
COc1ccc(N2CCN(C(=O)C3CCCN(S(=O)(=O)c4ccc5c(c4)oc(=O)n5C)C3)CC2)cc1 (configuration not stated) | > 21 µM (inactive)
CCCCn1c(SCC(=O)Nc2cc(C)on2)nnc1-c1ccco1 | > 42 µM (inactive)
Cc1ccnc(NC(c2cccnc2)c2ccc3cccnc3c2O)c1 (configuration not stated) | > 42 µM (inactive)
Cc1ccc(NS(=O)(=O)c2csc(C(N)=O)c2)cc1C | > 42 µM (inactive)
COc1cc(OC)c(C(=O)N2CCN(c3ccccn3)CC2)cc1OC | > 42 µM (inactive)
OC[C@@H](O)CCl | > 42 µM (inactive)
C=CCOC(=O)C(C#N)c1nc2ccccc2nc1N1CCN(Cc2ccccc2)CC1 (configuration not stated) | > 42 µM (inactive)
CC(=O)OCC(OC(C)=O)C(OC(C)=O)C(OC(C)=O)C(=O)Nc1ccccc1 (configuration not stated) | > 42 µM (inactive)
Cc1cc(C)n(C(=O)c2ccccc2[N+](=O)[O-])n1 | > 42 µM (inactive)
Cc1ccc(NC(=O)COC(=O)c2csc3c2CCC(C)C3)cc1S(=O)(=O)N1CCCCC1 (configuration not stated) | > 42 µM (inactive)
c1ccc2cc(Cn3ccnc3)ccc2c1 | > 42 µM (inactive)
CCOc1ccc(S(=O)(=O)N2CCC(C(=O)N3CCN(c4ccccc4)CC3)CC2)cc1 | > 42 µM (inactive)
C=C(C)C(=O)Nc1cccnc1Oc1ccc(F)cc1F | > 42 µM (inactive)
COc1ccc(NC(=O)CN2C(=O)c3ccccc3S2(=O)=O)cc1OC | > 42 µM (inactive)
N#C/C(=C/c1ccc(N2CCCCC2)o1)C(=O)Nc1ccc(Cl)cc1 | > 42 µM (inactive)
O=S(=O)(NCc1ccc(Cl)cc1)c1cnc[nH]1 | > 42 µM (inactive)
COc1ccc(-c2[nH]nc3c2C(c2ccncc2)C(C#N)=C(N)O3)cc1 (configuration not stated) | > 42 µM (inactive)
O=C(c1ccco1)N1CCN(CC(=O)N2c3ccccc3CCc3ccccc32)CC1 | > 42 µM (inactive)
O=C(CCSc1ccccc1)Nc1ncccn1 | > 42 µM (inactive)
Cc1ccnc(NC(=O)CNC(=O)c2ccc(Br)o2)c1 | > 42 µM (inactive)
COc1ccc(C)cc1NC(=O)Cn1c(=O)oc2ccccc21 | > 42 µM (inactive)
CN/C(=C/[N+](=O)[O-])NCCSCc1ccc(CN(C)C)o1 | > 42 µM (inactive)
C/C(=N\N1CCN(Cc2ccccc2Cl)CC1)c1ccc([N+](=O)[O-])cc1 | > 42 µM (inactive)
Cc1ccc(NC(=O)COc2ccccc2C(=O)NCCN(C)C)cc1 | > 42 µM (inactive)
N#CC1=C(N)Oc2c(ccc3ccccc23)C1c1cccs1 (configuration not stated) | > 42 µM (inactive)
O=c1[nH]c(=O)n(C2CCCO2)cc1Br (configuration not stated) | > 42 µM (inactive)

SMILES | AC50
CC(=O)C1(c2ccccc2)CCNCC1 | > 21 µM (inactive)
Cc1ccc(C(C[N+](=O)[O-])c2c(C)[nH]n(-c3ccccc3)c2=O)cc1 (configuration not stated) | 6.06 µM
C/C(=N\N=C(c1ccccc1)c1ccccc1)c1ccco1 | > 42 µM (inactive)
Cc1ccnc(NC(=O)c2ccc(Br)s2)c1 | > 42 µM (inactive)
Cc1cccc(OCc2nnc(SCC(=O)O)n2-c2ccccc2)c1 | > 42 µM (inactive)
CCOC(=O)c1cnc2c(C)c(Cl)ccc2c1N1CCOCC1 | > 42 µM (inactive)
COc1ccc(-c2nnc(SCC(=O)N3CCCCC3)o2)cc1 | > 42 µM (inactive)
COc1ccc2oc(=O)c(C(=O)NCc3ccco3)cc2c1 | > 42 µM (inactive)
COc1ccc(OC)c(N(CC(=O)N2CCCC2)S(=O)(=O)c2ccccc2)c1 | > 42 µM (inactive)
CSc1ncccc1C(=O)NC1CCCc2c1cnn2-c1ccc(C)c(C)c1 (configuration not stated) | > 42 µM (inactive)
Cc1ccc(S(=O)(=O)N2[C@@H](c3ccc(Br)cc3)C(C(=O)O)=C[C@H]2CC2CCCC2)cc1 | 3.51 µM
CC(NC(=O)C1CCCCC1)C(=O)NC1=NCCS1 (configuration not stated) | > 42 µM (inactive)
Cc1cc(/C=N/NC(=O)c2ccsc2)c(C)n1-c1cnccn1 | > 42 µM (inactive)
CC(NC(=O)CCc1nnc(-c2ccc(-c3ccccc3)cc2)o1)c1nc2ccccc2[nH]1 (configuration not stated) | > 42 µM (inactive)
C=CSc1sc(Cl)c(N(C)C)c1[N+](=O)[O-] | > 42 µM (inactive)
COc1ccc(CN2CC(=O)N(c3ccccc3C)C2=S)cc1OC | > 42 µM (inactive)
COc1cc(C(=O)Oc2cccnc2)cc(OC)c1OC | > 42 µM (inactive)
COc1cc(NC(=O)CCN2CCN(Cc3ccccc3)CC2)cc(OC)c1 | > 42 µM (inactive)
COc1cc(/C=N/NC(=O)c2cccc([N+](=O)[O-])c2)ccc1O | > 42 µM (inactive)
CO/N=C/c1ccc(Oc2ccc(C)cc2)nc1 | > 42 µM (inactive)
COC(=O)CCC(=O)OC1(C)C(=O)C2=CN(CCc3c[nH]c4ccccc34)C(c3ccc(OC)cc3)=CC2=C(Br)C1=O (configuration not stated) | > 42 µM (inactive)
CCCSc1nc(=O)n2cccc(C)c2n1 | > 42 µM (inactive)
Cc1ccc(-c2ccc(/C=N/n3cnnc3)o2)cc1 | > 42 µM (inactive)
O=S1(=O)CC(N2CCCCC2)C(N2CCCCC2)C1 (configuration not stated) | > 42 µM (inactive)
